According to PubChem BioAssay (NCI):
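A five-concentration, 48-hour dose response in 96-well plates underlies each endpoint, interpolated linearly between surrounding concentrations. TGI is the concentration that stops growth completely.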

How the values were obtained:
Assay in all cases: growth of human tumour cells (NCI), 48 h
[1] = system: 786-0 renal
[2] = system: A549 NSCLC
[3] = system: ACHN renal
[4] = system: CAKI-1 renal
[5] = system: CCRF-CEM leukemia
[6] = system: COLO 205 colon
[7] = system: DMS 114 small cell lung
[8] = system: DMS 273 small cell lung
[9] = system: EKVX NSCLC
[10] = system: HCC-2998 colon
[11] = system: HCT-116 colon
[12] = system: HCT-15 colon
[13] = system: HOP-18 NSCLC
[14] = system: IGROV1 ovarian
[15] = system: K-562 leukemia
[16] = system: KM12 colon
[17] = system: KM20L2 colon
[18] = system: LOX IMVI melanoma
[19] = system: LXFL 529 NSCLC
[20] = system: M14 melanoma
[21] = system: M19-MEL melanoma
[22] = system: MALME-3M melanoma
[23] = system: MOLT-4 leukemia
[24] = system: NCI-H226 lung
[25] = system: NCI-H23 lung
[26] = system: NCI-H522 lung
[27] = system: OVCAR-4 ovarian
[28] = system: OVCAR-5 ovarian
[29] = system: OVCAR-8 ovarian
[30] = system: RPMI-8226 leukemia
[31] = system: RXF 393 renal
[32] = system: RXF-631 renal
[33] = system: SF-268 CNS
[34] = system: SF-295 CNS
[35] = system: SF-539 CNS
[36] = system: SK-MEL-2 melanoma
[37] = system: SK-MEL-28 melanoma
[38] = system: SK-MEL-5 melanoma
[39] = system: SK-OV-3 ovarian
[40] = system: SN12C renal
[41] = system: SNB-19 CNS
[42] = system: SNB-78 CNS
[43] = system: SR leukemia
[44] = system: SW-620 colon
[45] = system: TK-10 renal
[46] = system: U251 CNS
[47] = system: UACC-257 melanoma
[48] = system: UACC-62 melanoma
[49] = system: UO-31 renal
[50] = system: XF 498 CNS
[51] = system: A498 renal
[52] = system: BT-549 breast
[53] = system: DLD-1 colon
[54] = system: DU-145 prostate
[55] = system: HL-60(TB) leukemia
[56] = system: HOP-62 NSCLC
[57] = system: HOP-92 NSCLC
[58] = system: HS 578T breast
[59] = system: HT29 colon
[60] = system: MDA-MB-231 breast
[61] = system: MDA-MB-435
[62] = system: MDA-N
[63] = system: NCI-H460 lung
[64] = system: NCI/ADR-RES ovarian
[65] = system: OVCAR-3 ovarian
[66] = system: PC-3 prostate
[67] = system: SNB-75 CNS
[68] = system: T-47D breast

COC(=O)C(=O)C(C(=O)C(=O)Nc1cc(Cl)c(Cl)cc1Cl)c1nc2ccc([N+](=O)[O-])cc2[nH]c1=O (stereo not drawn)
TGI [1]: > 100 µM
TGI [2]: > 100 µM
TGI [3]: > 100 µM
TGI [4]: > 100 µM
TGI [5]: > 100 µM
TGI [6]: > 100 µM
TGI [7]: > 100 µM
TGI [8]: > 100 µM
TGI [9]: > 100 µM
TGI [10]: > 100 µM
TGI [11]: > 100 µM
TGI [12]: > 100 µM
TGI [13]: 95.2 µM
TGI [14]: > 100 µM
TGI [15]: > 100 µM
TGI [16]: > 100 µM
TGI [17]: > 100 µM
TGI [18]: > 100 µM
TGI [19]: > 100 µM
TGI [20]: > 100 µM
TGI [21]: > 100 µM
TGI [22]: > 100 µM
TGI [23]: > 100 µM
TGI [24]: > 100 µM
TGI [25]: > 100 µM
TGI [26]: > 100 µM
TGI [27]: > 100 µM
TGI [28]: > 100 µM
TGI [29]: > 100 µM
TGI [30]: > 100 µM
TGI [31]: > 100 µM
TGI [32]: > 100 µM
TGI [33]: > 100 µM
TGI [34]: > 100 µM
TGI [35]: > 100 µM
TGI [36]: > 100 µM
TGI [37]: > 100 µM
TGI [38]: > 100 µM
TGI [39]: > 100 µM
TGI [40]: > 100 µM
TGI [41]: > 100 µM
TGI [42]: > 100 µM
TGI [43]: > 100 µM
TGI [44]: > 100 µM
TGI [45]: > 100 µM
TGI [46]: > 100 µM
TGI [47]: > 100 µM
TGI [48]: > 100 µM
TGI [49]: > 100 µM
TGI [50]: > 100 µM

COC(=O)/C(=N\Nc1nnc(C)n1N)C(C#N)c1ccccc1 (stereo not drawn)
TGI [1]: > 55.1 µM
TGI [51]: > 100 µM
TGI [2]: > 100 µM
TGI [3]: > 71.1 µM
TGI [52]: > 100 µM
TGI [4]: > 100 µM
TGI [5]: > 100 µM
TGI [6]: > 100 µM
TGI [53]: > 100 µM
TGI [7]: 42.8 µM
TGI [8]: > 100 µM
TGI [54]: > 100 µM
TGI [9]: > 100 µM
TGI [10]: > 100 µM
TGI [11]: > 100 µM
TGI [12]: > 100 µM
TGI [55]: > 100 µM
TGI [13]: > 100 µM
TGI [56]: > 100 µM
TGI [57]: > 100 µM
TGI [58]: > 100 µM
TGI [59]: > 100 µM
TGI [14]: > 100 µM
TGI [15]: > 100 µM
TGI [16]: > 100 µM
TGI [17]: > 100 µM
TGI [18]: > 100 µM
TGI [19]: > 100 µM
TGI [20]: > 100 µM
TGI [21]: 32.8 µM
TGI [22]: 46.5 µM
TGI [60]: > 100 µM
TGI [61]: 32.5 µM
TGI [62]: 44.4 µM
TGI [23]: > 100 µM
TGI [24]: > 100 µM
TGI [25]: > 56.1 µM
TGI [63]: > 100 µM
TGI [26]: > 100 µM
TGI [64]: > 100 µM
TGI [65]: > 100 µM
TGI [27]: > 67.4 µM
TGI [28]: > 100 µM
TGI [29]: > 100 µM
TGI [66]: > 100 µM
TGI [30]: > 100 µM
TGI [31]: > 100 µM
TGI [32]: > 100 µM
TGI [33]: > 100 µM
TGI [34]: > 100 µM
TGI [35]: > 100 µM
TGI [36]: > 100 µM
TGI [37]: > 100 µM
TGI [38]: > 100 µM
TGI [39]: > 100 µM
TGI [40]: > 66.7 µM
TGI [41]: > 100 µM
TGI [67]: > 100 µM
TGI [42]: > 100 µM
TGI [43]: > 100 µM
TGI [44]: > 100 µM
TGI [68]: > 100 µM
TGI [45]: > 100 µM
TGI [46]: > 100 µM
TGI [47]: > 100 µM
TGI [48]: > 100 µM
TGI [49]: > 100 µM
TGI [50]: > 100 µM
